target: T1, Receptor-type tyrosine-protein phosphatase C (Homo sapiens, UniProt P08575); assay: Phosphatase Activity Assay
T1 sequence (P08575 whole entry): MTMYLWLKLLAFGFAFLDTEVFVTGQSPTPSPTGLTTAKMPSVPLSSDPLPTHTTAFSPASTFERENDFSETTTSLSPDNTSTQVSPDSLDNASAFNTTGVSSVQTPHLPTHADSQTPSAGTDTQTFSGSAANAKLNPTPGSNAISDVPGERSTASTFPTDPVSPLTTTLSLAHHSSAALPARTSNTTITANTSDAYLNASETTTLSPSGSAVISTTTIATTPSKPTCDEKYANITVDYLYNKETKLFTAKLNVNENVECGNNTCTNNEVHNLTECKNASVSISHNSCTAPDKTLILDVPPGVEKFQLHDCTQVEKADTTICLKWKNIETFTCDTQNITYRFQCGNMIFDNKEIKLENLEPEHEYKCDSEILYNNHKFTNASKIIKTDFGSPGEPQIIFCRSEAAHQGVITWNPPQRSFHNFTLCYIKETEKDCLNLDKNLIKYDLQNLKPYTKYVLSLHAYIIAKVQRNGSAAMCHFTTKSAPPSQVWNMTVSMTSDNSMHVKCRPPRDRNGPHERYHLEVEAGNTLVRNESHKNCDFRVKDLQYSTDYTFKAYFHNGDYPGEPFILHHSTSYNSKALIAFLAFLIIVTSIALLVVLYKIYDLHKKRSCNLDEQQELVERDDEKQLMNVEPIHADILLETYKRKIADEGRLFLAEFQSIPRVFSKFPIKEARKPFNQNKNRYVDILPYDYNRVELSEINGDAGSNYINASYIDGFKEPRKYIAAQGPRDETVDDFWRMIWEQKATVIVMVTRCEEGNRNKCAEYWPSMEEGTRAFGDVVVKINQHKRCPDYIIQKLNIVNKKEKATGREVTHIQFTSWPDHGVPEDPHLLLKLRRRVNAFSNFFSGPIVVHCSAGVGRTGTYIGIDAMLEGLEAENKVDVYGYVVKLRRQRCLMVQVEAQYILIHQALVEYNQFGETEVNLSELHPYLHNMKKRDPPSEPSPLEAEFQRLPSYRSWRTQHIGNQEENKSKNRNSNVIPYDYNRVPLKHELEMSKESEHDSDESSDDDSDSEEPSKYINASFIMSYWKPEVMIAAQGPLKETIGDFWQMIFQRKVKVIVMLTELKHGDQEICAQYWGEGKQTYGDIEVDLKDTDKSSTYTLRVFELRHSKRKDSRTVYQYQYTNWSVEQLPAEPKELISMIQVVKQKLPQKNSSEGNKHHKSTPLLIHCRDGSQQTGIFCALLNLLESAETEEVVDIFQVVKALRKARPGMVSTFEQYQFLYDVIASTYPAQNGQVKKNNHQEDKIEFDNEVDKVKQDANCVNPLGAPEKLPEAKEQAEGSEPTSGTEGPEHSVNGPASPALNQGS
From the text: Protein phosphatases were purchased from Upstate Biotechnology (Lake Placid, NY).

SMILES	IC50
O=C1C(=O)c2ccccc2-c2ccccc21	0.3 µM
O=C1C(=O)c2cccc([N+](=O)[O-])c2-c2ccccc21 [4-Nitro-phenanthrene-9,10 dione]	6 µM
CC(C)(C)C(=O)Nc1ccc2c(c1)C(=O)C(=O)c1ccccc1-2 [N-(9,10-Dioxo-9,10-dihydro-phenanthrene-2-yl)-2,2-dimethyl-propionamide]	0.4 µM

— BindingDB's records for doi:10.1074/jbc.M809633200 (United States Army Medical Research Institute of Infectious …, 2009)
